Source: patent publication US8912216B2, “Hetaryl-[1,8]naphthyridine derivatives” (Merck Patent GmbH, priority 2010, dated 2014)
Blank lines part the entries; values can stand above or below the molecule they belong to.

Columns and labels:
GST-ALK5 = biological target: T1, GST-ALK5 (Homo sapiens, UniProt P36897); assay: In-vitro (enzyme) kinase assay, 384-well flashplate (Example 36); assay type: biochemical; conditions: GST-ALK5, GST-SMAD2 substrate, 3 mM ATP, 30° C., 45 min; read-out: TβR activity (Example 36)
T1 sequence (P36897 34-503): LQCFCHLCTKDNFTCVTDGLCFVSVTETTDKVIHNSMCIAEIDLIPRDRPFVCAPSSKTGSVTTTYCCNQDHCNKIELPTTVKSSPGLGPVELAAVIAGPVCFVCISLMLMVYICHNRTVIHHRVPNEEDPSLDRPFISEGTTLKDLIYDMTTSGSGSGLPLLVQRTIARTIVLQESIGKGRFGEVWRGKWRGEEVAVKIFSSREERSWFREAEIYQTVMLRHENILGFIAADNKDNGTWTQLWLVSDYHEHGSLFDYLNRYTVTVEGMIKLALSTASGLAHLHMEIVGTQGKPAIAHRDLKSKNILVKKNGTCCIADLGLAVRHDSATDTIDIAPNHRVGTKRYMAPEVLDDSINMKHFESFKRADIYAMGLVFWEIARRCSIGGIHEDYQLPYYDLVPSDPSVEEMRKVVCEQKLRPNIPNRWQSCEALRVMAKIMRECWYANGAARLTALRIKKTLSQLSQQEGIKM
In short: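 Radiometric flashplate assay: 31.2 nM GST-ALK5 phosphorylating 439 nM GST-SMAD2 with 3 mM ATP plus ³³P-ATP, in HEPES/MgCl2/MnCl2/DTT/BSA buffer pH 7.4, 45 min at 30 °C, 5-10 compound concentrations. EDTA stop, filtration and washing, then radioactivity counted; IC50 derived from the curve.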

[1] = test system: TGF-beta-induced phosphorylation of Smad2 and Smad3 in Mv1-Lu cells; assay: Inhibition of Smad2/3 phosphorylation in Mv1Lu cells (Example 35A); assay type: cell-based, mink Mustela vison; conditions: Neogale vison, Mv1-Lu cells, TGF-beta 1 5 ng/ml, phospho-Smad2/3 ELISA, read-out: TβR activity (Example 35A)
In short: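 Serum-starved (16-20 h) Mv1-Lu mink lung epithelial cells were pre-incubated 1.5 h with compound dilutions (0.2% DMSO), then stimulated 1 h with 5 ng/ml TGF-beta 1. Phospho-Smad2 (Ser465/467)/Smad3 (Ser423/425) in lysates was measured by ELISA. IC50 came from dose-response fits between stimulated and unstimulated controls.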

IC50 (GST-ALK5): 100 to 1000 nM
IC50 [1]: 100 to 1000 nM
SMILES: CC1(C)CC(=O)Nc2ccc(-c3cncc(-c4cc(-c5cc(Cl)ccc5F)nc5ncccc45)c3)cc21 [compound 157, 6-{5-[2-(5-Chloro-2-fluoro-phenyl)-[1,8]naphthyridin-4-yl]-pyridin-3-yl}-4,4-dimethyl-3,4-dihydro-1H-quinolin-2-one]

IC50 (GST-ALK5): < 100 nM
IC50 [1]: < 100 nM
SMILES: CN1CCN(c2ccc(-c3cncc(-c4cc(-c5cc(Cl)ccc5F)nc5ncccc45)c3)cc2)CC1 [compound 92, 2-(5-Chloro-2-fluoro-phenyl)-4-{5-[4-(4-methyl-piperazin-1-yl)-phenyl]-pyridin-3-yl}-[1,8]naphthyridine]

IC50 (GST-ALK5): < 100 nM
IC50 [1]: < 100 nM
SMILES: COCCN1CCC(n2cc(-c3cncc(-c4cc(-c5cc(F)ccc5F)nc5ncccc45)c3)cn2)CC1 [compound 50, 2-(2,5-Difluoro-phenyl)-4-(5-{1-[1-(2-methoxy-ethyl)-piperidin-4-yl]-1H-pyrazol-4-yl}-pyridin-3-yl)-[1,8]naphthyridine]

IC50 (GST-ALK5): < 100 nM
IC50 [1]: 100 to 1000 nM
SMILES: CN1CCC(n2cc(-c3cncc(-c4cc(-c5ccccc5)nc5ncccc45)c3)cn2)CC1 [compound 63, 4-{5-[1-(1-Methyl-piperidin-4-yl)-1H-pyrazol-4-yl]-pyridin-3-yl}-2-phenyl-[1,8]naphthyridine]

IC50 (GST-ALK5): 100 to 1000 nM
IC50 [1]: 1000 to 10000 nM
SMILES: Cn1cc(-c2cncc(-c3cc(-c4ccc(F)cc4)nc4ncccc34)c2)cn1 [compound 16, 2-(4-Fluoro-phenyl)-4-[5-(1-methyl-1H-pyrazol-4-yl)-pyridin-3-yl]-[1,8]naphthyridine]

IC50 (GST-ALK5): < 100 nM
IC50 [1]: 100 to 1000 nM
SMILES: O=C1COc2ccc(-c3cncc(-c4cc(-c5cc(Cl)ccc5F)nc5ncccc45)c3)cc2N1 [compound 131, 6-{5-[2-(5-Chloro-2-fluoro-phenyl)-[1,8]naphthyridin-4-yl]-pyridin-3-yl}-4H-benzo[1,4]oxazin-3-one]

IC50 (GST-ALK5): < 100 nM
IC50 [1]: < 100 nM
SMILES: Fc1ccccc1-c1cc(-c2cncc(-c3cnn(CCN4CCCC4)c3)c2)c2cccnc2n1 [compound 24, 2-(2-Fluoro-phenyl)-4-{5-[1-(2-pyrrolidin-1-yl-ethyl)-1H-pyrazol-4-yl]-pyridin-3-yl}-[1,8]naphthyridine]

IC50 (GST-ALK5): < 100 nM
IC50 [1]: < 100 nM
SMILES: Fc1ccc(Cl)cc1-c1cc(-c2cncc(-c3ccc4c(c3)CNCC4)c2)c2cccnc2n1 [compound 136, 2-(5-Chloro-2-fluoro-phenyl)-4-[5-(1,2,3,4-tetrahydro-isoquinolin-7-yl)-pyridin-3-yl]-[1,8]naphthyridine]

IC50 (GST-ALK5): < 100 nM
IC50 [1]: 100 to 1000 nM
SMILES: Fc1ccc(F)c(-c2cc(-c3cncc(-c4cnn(CCCN5CCOCC5)c4)c3)c3cccnc3n2)c1 [compound 48, 2-(2,5-Difluoro-phenyl)-4-{5-[1-(3-morpholin-4-yl-propyl)-1H-pyrazol-4-yl]-pyridin-3-yl}-[1,8]naphthyridine]

IC50 (GST-ALK5): < 100 nM
IC50 [1]: < 100 nM
SMILES: Fc1ccc(F)c(-c2cc(-c3cncc(-c4cnn(C5CCNCC5)c4)c3)c3cccnc3n2)c1 [compound 47, 2-(2,5-Difluoro-phenyl)-4-[5-(1-piperidin-4-yl-1H-pyrazol-4-yl)-pyridin-3-yl]-[1,8]naphthyridine]

IC50 (GST-ALK5): < 100 nM
IC50 [1]: 100 to 1000 nM
SMILES: Fc1ccc(Cl)cc1-c1cc(-c2cncc(-c3ccncc3)c2)c2cccnc2n1 [compound 102, 4-[3,4′]Bipyridinyl-5-yl-2-(5-chloro-2-fluoro-phenyl)-[1,8]naphthyridine]

IC50 (GST-ALK5): 100 to 1000 nM
IC50 [1]: < 100 nM
SMILES: CN1CCc2cc(-c3cncc(-c4cc(-c5cc(Cl)ccc5F)nc5ncccc45)c3)ccc21 [compound 149, 2-(5-Chloro-2-fluoro-phenyl)-4-[5-(1-methyl-2,3-dihydro-1H-indol-5-yl)-pyridin-3-yl]-[1,8]naphthyridine]

IC50 (GST-ALK5): < 100 nM
IC50 [1]: < 100 nM
SMILES: CN1CC[C@@H](n2cc(-c3cncc(-c4cc(-c5cc(Cl)ccc5F)nc5ncccc45)c3)cn2)C1 [compound 65, 2-(5-Chloro-2-fluoro-phenyl)-4-{5-[1-((R)-1-methyl-pyrrolidin-3-yl)-1H-pyrazol-4-yl]-pyridin-3-yl}-[1,8]naphthyridine]

IC50 (GST-ALK5): < 100 nM
IC50 [1]: < 100 nM
SMILES: CN1CCC(n2cc(-c3cncc(-c4cc(-c5cc(F)ccc5F)nc5ncccc45)c3)cn2)CC1 [compound 35, 2-(2,5-Difluoro-phenyl)-4-{5-[1-(1-methyl-piperidin-4-yl)-1H-pyrazol-4-yl]-pyridin-3-yl}-[1,8]naphthyridine]

Further lines, the molecule ahead of its results:

SMILES: Fc1ccc(F)c(-c2cc(-c3cncc(-c4cccc(OCCN5CCNCC5)c4)c3)c3cccnc3n2)c1 [compound 148, 2-(2,5-Difluoro-phenyl)-4-{5-[3-(2-piperazin-1-yl-ethoxy)-phenyl]-pyridin-3-yl}-[1,8]naphthyridine]
IC50 (GST-ALK5): < 100 nM
IC50 [1]: < 100 nM

SMILES: CN1CCN(c2ccc(-c3cncc(-c4cc(-c5cc(Cl)ccc5F)nc5ncccc45)c3)nn2)CC1 [compound 113, 2-(5-Chloro-2-fluoro-phenyl)-4-{5-[6-(4-methyl-piperazin-1-yl)-pyridazin-3-yl]-pyridin-3-yl}-[1,8]naphthyridine]
IC50 (GST-ALK5): < 100 nM
IC50 [1]: < 100 nM

SMILES: CNC(=O)c1cccc(-c2cncc(-c3cc(-c4cc(Cl)ccc4F)nc4ncccc34)c2)n1 [compound 127, 5′-[2-(5-Chloro-2-fluoro-phenyl)-[1,8]naphthyridin-4-yl]-[2,3′]bipyridinyl-6-carboxylic acid methylamide]
IC50 (GST-ALK5): 1000 to 10000 nM
IC50 [1]: > 10000 nM

SMILES: CN1CCC(NC(=O)c2cccc(-c3cncc(-c4cc(-c5cc(Cl)ccc5F)nc5ncccc45)c3)c2)CC1 [compound 126, 3-{5-[2-(5-Chloro-2-fluoro-phenyl)-[1,8]naphthyridin-4-yl]-pyridin-3-yl}-N-(1-methyl-piperidin-4-yl)-benzamide]
IC50 (GST-ALK5): 100 to 1000 nM
IC50 [1]: 100 to 1000 nM

SMILES: Fc1ccc(C(F)(F)F)cc1-c1cc(-c2cncc(-c3cnn(CCN4CCCC4)c3)c2)c2cccnc2n1 [compound 19, 2-(2-Fluoro-5-trifluoromethyl-phenyl)-4-{5-[1-(2-pyrrolidin-1-yl-ethyl)-1H-pyrazol-4-yl]-pyridin-3-yl}-[1,8]naphthyridine]
IC50 (GST-ALK5): < 100 nM
IC50 [1]: < 100 nM

SMILES: CN1CCC(n2cc(-c3cncc(-c4cc(-c5cc(F)ccc5F)nc5ncccc45)n3)cn2)CC1 [compound 62, 2-(2,5-Difluoro-phenyl)-4-{6-[1-(1-methyl-piperidin-4-yl)-1H-pyrazol-4-yl]-pyrazin-2-yl}-[1,8]naphthyridine]
IC50 (GST-ALK5): < 100 nM
IC50 [1]: < 100 nM

SMILES: Fc1ccc(Cl)cc1-c1cc(-c2cncc3ccccc23)c2ccccc2n1 [compound 1, 2-(5-Chloro-2-fluoro-phenyl)-4-isoquinolin-4-yl-quinoline]
IC50 (GST-ALK5): 1000 to 10000 nM
IC50 [1]: 1000 to 10000 nM

SMILES: O=C1CCc2cc(-c3cncc(-c4cc(-c5cc(Cl)ccc5F)nc5ncccc45)c3)cnc2N1 [compound 165, 6-{5-[2-(5-Chloro-2-fluoro-phenyl)-[1,8]naphthyridin-4-yl]-pyridin-3-yl}-3,4-dihydro-1H-[1,8]naphthyridin-2-one]
IC50 (GST-ALK5): < 100 nM
IC50 [1]: < 100 nM

SMILES: Fc1ccc(F)c(-c2cc(-c3cccnc3)c3cccnc3n2)c1 [compound 137, 2-(2,5-Difluoro-phenyl)-4-pyridin-3-yl-[1,8]naphthyridine]
IC50 (GST-ALK5): 1000 to 10000 nM
IC50 [1]: > 10000 nM

SMILES: Fc1ccc(F)c(-c2cc(-c3cncc(-c4cccc(OC5CCNCC5)c4)c3)c3cccnc3n2)c1 [compound 144, 2-(2,5-Difluoro-phenyl)-4-{5-[3-(piperidin-4-yloxy)-phenyl]-pyridin-3-yl}-[1,8]naphthyridine]
IC50 (GST-ALK5): < 100 nM
IC50 [1]: 100 to 1000 nM

SMILES: OCCn1cc(-c2cncc(-c3cc(-c4ccccc4F)nc4ncccc34)n2)cn1 [compound 83, 2-(4-{6-[2-(2-Fluoro-phenyl)-[1,8]naphthyridin-4-yl]-pyrazin-2-yl}-pyrazol-1-yl)-ethanol]
IC50 (GST-ALK5): < 100 nM
IC50 [1]: 1000 to 10000 nM

SMILES: Fc1ccc(Cl)cc1-c1cc(-c2ccnc(-c3ccccc3)c2)c2cccnc2n1 [compound 20, 2-(5-Chloro-2-fluoro-phenyl)-4-(2-phenyl-pyridin-4-yl)-[1,8]naphthyridine]
IC50 (GST-ALK5): > 10000 nM
IC50 [1]: > 10000 nM

SMILES: CN(C)CCNC(=O)c1ccc(-c2cncc(-c3cc(-c4cc(Cl)ccc4F)nc4ncccc34)c2)cn1 [compound 178, 5′-[2-(5-Chloro-2-fluoro-phenyl)-[1,8]naphthyridin-4-yl]-[3,3′]bipyridinyl-6-carboxylic acid (2-dimethylamino-ethyl)-amide]
IC50 (GST-ALK5): 100 to 1000 nM
IC50 [1]: 100 to 1000 nM

SMILES: CCOC(=O)c1cccc(-c2cncc(-c3cc(-c4cc(Cl)ccc4F)nc4ncccc34)c2)n1 [compound 124, 5′-[2-(5-Chloro-2-fluoro-phenyl)-[1,8]naphthyridin-4-yl]-[2,3′]bipyridinyl-6-carboxylic acid ethyl ester]
IC50 (GST-ALK5): 1000 to 10000 nM
IC50 [1]: 100 to 1000 nM
